From US20140349989A1, “COMPOUNDS AND THERAPEUTIC USES THEREOF” (Alzheimer's Institute of America, priority 2011, published 2014)
Like-named read-outs stand apart in the source and are kept apart here.

Experiment: Cytotoxicity Assay (HCT116, CellTiter-Glo)
Assay type: cell-based
Details: human
Description: HCT116 cells were seeded in 96 well plates (Greiner Bio-One, Monroe, N.C.) and allowed to settle overnight. Test compound dissolved in dimethyl sulfoxide (DMSO) was added and drug incubation proceeded for 72 hours. When applicable, a 1000× solution of nicotinic acid (NA; Sigma-Aldrich, St. Louis, Mo.) dissolved in water was generated, and 1×NA (10 μM final concentration) was added at the same time as the test compound. After 72 hour, 50 μL of CellTiter-Glo Luminescent Cell Viability Assay reagent (Promega Corporation, Madison, Wis.) was added to cells in 200 μL of cellular media. After a proscribed incubation period, luminescence was measured using a TopCount NXT plate reader (PerkinElmer, Waltham, Mass.).

[1] = HCT116 cells, 72 hours drug incubation, CellTiter-Glo luminescence, read-out: HCT116 cell cytotoxicity IC50

## Cc1c(C(=O)N2CCN(C3CCCCC3)CC2)c2ccccc2n1-c1ccc(NC(=O)NCc2cccnc2)cc1 [Compound 104, 1-(4-{3-[(4-Cyclohexyl-piperazin-1-yl)carbonyl]-2-methyl-1H-indol-1-yl}phenyl)-3-(pyridin-3-ylmethyl)urea]
[1]
  IC50 at 72 h: < 100 nM

## O=C(NCc1cccnc1)Nc1ccc(-n2cc(C3CCN(C4COC4)CC3)c3ccccc32)cc1 [Compound 105, 1-(4-{3-[1-(Oxetan-3-yl)piperidin-4-yl]-1H-indol-1-yl}phenyl)-3-(pyridin-3-ylmethyl)urea]
[1]
  IC50 at 72 h: < 100 nM

## CCOC(=O)c1cn(CCCNC(=O)NCc2cccnc2)c2ccccc12 [Compound 106, Ethyl 1-(3-{[(pyridin-3-ylmethyl)carbamoyl]ami-no}propyl)-1H-indole-3-carboxylate]
[1]
  IC50 at 72 h: ≥ 100 nM

## O=C(NCc1cccnc1)Nc1ccc(-n2cc(C(=O)N3CCC(N4CCC(F)(F)CC4)CC3)c3ccccc32)c(Cl)c1 [Compound 107, 1-(3-Chloro-4-{3-[(4,4-difluoro-1,4′-bipiperidin-1′-yl)carbonyl]-1H-indol-1-yl}phenyl)-3-(pyridin-3-ylmethyl)urea]
[1]
  IC50 at 72 h: < 100 nM

## Cc1c(C(=O)N2CCC(O)CC2)c2ccccc2n1-c1ccc(NC(=O)NCc2cccnc2)cc1 [Compound 108, 1-(4-{3-[(4-Hydroxypiperidin-1-yl)carbonyl]-2-methyl-1H-indol-1-yl}phenyl)-3-(pyridin-3-yl-methyl)urea]
[1]
  IC50 at 72 h: < 100 nM

## O=C(NCc1cccnc1)Nc1ccc(-n2cc(C3CCN(C4CCCC4)CC3)c3ccccc32)cc1 [Compound 110, 1-{4-[3-(1-Cyclopentyl-piperidin-4-yl)-1H-indol-1-yl]phenyl}-3-(pyridin-3-ylmethyl)urea]
[1]
  IC50 at 72 h: < 100 nM

## CN1CCC(c2cn(-c3ccc(NC(=O)NCc4cccnc4)cc3)c3ccccc23)CC1 [Compound 111, 1-{4-[3-(1-Methylpiperidin-4-yl)-1H-indol-1-yl]phenyl}-3-(pyridin-3-ylmethyl)urea]
[1]
  IC50 at 72 h: < 100 nM

## CN(C)CC(=O)N1CCC2(CC1)CN(c1ccc(NC(=O)NCc3cccnc3)cc1)c1ccccc12 [Compound 112, 1-{4-[1′-(N,N-Dimethylglycyl)spiro[indole-3,4′-piperidin]-1(2H)-yl]phenyl}-3-(pyridin-3-ylmethyl)urea]
[1]
  IC50 at 72 h: < 100 nM

## CCN1CCN(C(=O)c2cn(CCCCCNC(=O)NCc3cncs3)c3ccccc23)CC1 [Compound 113, 1-(5-{3-[(4-Ethylpiperazin-1-yl)carbonyl]-1H-indol-1-yl}pentyl)-3-(1,3-thiazol-5-ylmethyl) urea]
[1]
  IC50 at 72 h: < 100 nM

## O=C(NCc1cccnc1)Nc1ccc(-n2nc(N3CCN(C4COC4)CC3)c3ccccc32)cc1 [Compound 114, 1-(4-{3-[4-(Oxetan-3-yl)piperazin-1-yl]-1H-indazol-1-yl}phenyl)-3-(pyridin-3-ylmethyl)urea]
[1]
  IC50 at 72 h: < 100 nM

## CN1CCN(C2CCN(C(=O)c3cn(CCCCNC(=O)NCc4cccnc4)c4ccccc34)CC2)CC1 [Compound 115, 1-[4-(3-{[4-(4-Methylpiperazin-1-yl)piperidin-1-yl]carbonyl}-1H-indol-1-yl)butyl]-3-(pyridin-3-ylmethyl)urea]
[1]
  IC50 at 72 h: < 100 nM

## O=C(NCCCCCn1cc(C(=O)N2CCN(C3CCCCC3)CC2)c2ccccc21)NCc1cccnc1 [Compound 116, 1-(5-{3-[(4-Cyclohexyl-piperazin-1-yl)carbonyl]-1H-indol-1-yl}pentyl)-3-(pyridin-3-ylmethyl)urea]
[1]
  IC50 at 72 h: < 100 nM

## O=C(NCc1cccnc1)Nc1ccc(N2CC3(CCN(C4CCCC4)CC3)c3ccccc32)cc1 [Compound 117, 1-[4-(1′-Cyclo-pentylspiro[indole-3,4′-piperidin]-1(2H)-yl)phenyl]-3-(pyridin-3-ylmethyl)urea]
[1]
  IC50 at 72 h: < 100 nM

## O=C(NCc1cccnc1)Nc1ccc(-n2cc(-c3nccn3CCCN3CCCC3)c3ccccc32)cc1 [Compound 120, 1-(Pyridin-3-ylmethyl)-3-[4-(3-{1-[3-(pyrrolidin-1-yl)propyl]-1H-imidazol-2-yl}-1H-indol-1-yl)phenyl] urea]
HCT116 cell cytotoxicity IC50
  IC50 at 72 h: ≥ 100 nM

## CC(C)(C)OC(=O)N1CC(N2CC(CCCCCCNC(=O)NCc3cccnc3)c3ccccc32)C1 (centres unmarked) [Compound 121, tert-Butyl 3-[3-(6-{[(pyridin-3-yl-methyl)carbamoyl]amino}hexyl)-2,3-dihydro-1H-indol-1-yl]azetidine-1-carboxylate]
HCT116 cell cytotoxicity IC50
  IC50 at 72 h: < 100 nM

## CC(C)(C)OC(=O)N1CCC(n2cc(CCCCCCNC(=O)NCc3cccnc3)c3ccccc32)CC1 [Compound 123, tert-Butyl 4-[3-(6-{[(pyridin-3-ylmethyl)carbamoyl]amino}hexyl)-1H-indol-1-yl]piperidine-1-carboxylate]
HCT116 cell cytotoxicity IC50
  IC50 at 72 h: ≥ 100 nM

## O=C(NCCCCCn1cc(C(=O)N2CCN(C3CCCCC3)CC2)c2ccccc21)NCc1cncs1 [Compound 124, 1-(5-{3-[(4-Cyclohexyl-piperazin-1-yl)carbonyl]-1H-indol-1-yl}pentyl)-3-(1,3-thiazol-5-ylmethyl) urea]
[1]
  IC50 at 72 h: < 100 nM

## CN1CCN(C2CCN(C(=O)c3cn(CCCNC(=O)NCc4cccnc4)c4ccccc34)CC2)CC1 [Compound 125, 1-[3-(3-{[4-(4-Methylpiperazin-1-yl)piperidin-1-yl]carbonyl}-1H-indol-1-yl)propyl]-3-(pyridin-3-ylmethyl)urea]
[1]
  IC50 at 72 h: < 100 nM

## CCOCCOCCN1CCC2(CC1)CN(c1ccc(NC(=O)NCc3cccnc3)cc1)c1ccccc12 [Compound 126, 1-(4-{1′-[2-(2-Ethoxy-ethoxy)ethyl]spiro[indole-3,4′-piperidin]-1(2H)-yl}phenyl)-3-(pyridin-3-ylmethyl)urea]
HCT116 cell cytotoxicity IC50
  IC50 at 72 h: ≥ 100 nM

## O=C(NCc1cccnc1)Nc1ccc(-n2c(Cl)c(C(=O)N3CCC(n4ccnc4)CC3)c3ccccc32)cc1 [Compound 127, 1-[4-(2-Chloro-3-{[4-(1H-imidazol-1-yl)piperidin-1-yl]carbonyl}-1H-indol-1-yl)phenyl]-3-(pyridin-3-ylmethyl)urea]
HCT116 cell cytotoxicity IC50
  IC50 at 72 h: < 100 nM

## O=C(NCc1ccc(Cl)nc1)Nc1ccc(-n2cc(CCN3CCOCC3)c3ccccc32)cc1 [Compound 128, 1-[(6-Chloro-pyridin-3-yl)methyl]-3-(4-{3-[2-(morpholin-4-yl)ethyl]-1H-indol-1-yl}phenyl)urea]
HCT116 cell cytotoxicity IC50
  IC50 at 72 h: < 100 nM

## O=C(NCc1cccnc1)Nc1ccc(-n2cc(C3CCN(CCO)CC3)c3ccccc32)cc1 [Compound 129, 1-(4-{3-[1-(2-Hydroxy-ethyl)piperidin-4-yl]-1H-indol-1-yl}phenyl)-3-(pyridin-3-ylmethyl)urea]
HCT116 cell cytotoxicity IC50
  IC50 at 72 h: ≥ 100 nM

## O=C(NCc1cccnc1)Nc1ccc(N2CC3(CCN(C4CCOCC4)CC3)c3ccccc32)nc1 [Compound 130]
HCT116 cell cytotoxicity IC50
  IC50 at 72 h: < 100 nM

## CC1CCCN1CCc1cn(-c2ccc(/C=C/C(=O)NCc3cccnc3)cc2)c2ccccc12 (centres unmarked) [Compound 161, (2E)-3-(4-{3-[2-(2-Methylpyrrolidin-1-yl)ethyl]-1H-indol-1-yl)phenyl)-N-(pyridin-3-ylmethyl)prop-2-enamide]
[1]
  IC50 at 72 h: < 100 nM

## CCN(CC)CCc1cn(-c2ccc(/C=C/C(=O)NCc3cccnc3)cc2)c2ccccc12 [Compound 162, (2E)-3-(4-{3-[2-(Diethylamio)ethyl]-1H-indol-1-yl}phenyl)-N-(pyridin-3-ylmethyl)prop-2-enamide]
[1]
  IC50 at 72 h: < 100 nM

## CC(C)N(CCc1cn(-c2ccc(/C=C/C(=O)NCc3cccnc3)cc2)c2ccccc12)C(C)C [Compound 163]
[1]
  IC50 at 72 h: < 100 nM
